# Source: PMC11790956, “A microscale thermophoresis-based enzymatic RNA methyltransferase assay enables the discovery of DNMT2 inhibitors” (Communications Chemistry, 2025)
# “Also recorded” adds a separate entry of the source.
# Tests used:
# DNMT2-tRNA complex = target: T1, DNMT2-tRNA complex (Homo sapiens, UniProt O14717); assay: Electrophoretic mobility shift assay (EMSA) of the DNMT2-tRNA complex; type: binding; details: 500 µM compound, DNMT2 10 µM, tRNAAsp 5 µM
# T1 construct: made in house
# T1 sequence (O14717 1-391): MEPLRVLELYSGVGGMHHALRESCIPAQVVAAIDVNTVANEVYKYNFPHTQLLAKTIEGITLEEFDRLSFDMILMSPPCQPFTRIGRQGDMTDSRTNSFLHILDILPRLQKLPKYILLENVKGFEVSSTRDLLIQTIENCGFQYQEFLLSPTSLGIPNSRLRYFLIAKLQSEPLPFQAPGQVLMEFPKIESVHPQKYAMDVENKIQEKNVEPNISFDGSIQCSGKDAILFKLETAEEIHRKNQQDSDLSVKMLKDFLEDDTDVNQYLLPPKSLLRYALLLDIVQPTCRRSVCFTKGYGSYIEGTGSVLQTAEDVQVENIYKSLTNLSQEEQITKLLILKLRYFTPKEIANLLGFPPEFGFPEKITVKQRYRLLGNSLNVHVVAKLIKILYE
# Experimental: We speculated these hits might bind very weakly to the tRNA-DNMT2 interaction site and by this inhibit DNMT2 activity. To test this hypothesis, we performed an electrophoretic mobility shift assay (EMSA) using tRNA^Asp (5 µM) and DNMT2 (10 µM) compared to the tRNA sample in absence of the DNMT2 protein (SI Fig. 4)[33]. […] Subsequently, we treated the DNMT2-tRNA complex with all hit compounds at 500 µM and observed their potential to disrupt the complex.
# DNMT2 (10 µM) was mixed with tRNA^Asp (5 µM) and treated with 500 µM of the respective screening hit compound in DNMT2 assay buffer (100 mM Tris-HCl, pH 8, 100 mM NH4OAc, 0.1 mM EDTA, 10 mM MgCl2, 10 mM DTT). Subsequently, reaction samples (each 5 µL) were loaded to a native 10% polyacrylamide gel and separated electrophoretically (1 h, 180 V) in 1x TBE. RNA was stained in situ with 1x GelRed and PAGE analysis was conducted by fluorescence scanning at an excitation wavelength of 532 nm (Amersham Typhoon 9400). Positive control: DNMT2+tRNA (band at high molecular weights); negative control: only tRNA (band at low molecular weights).
# SI Figure 4. Electrophore?c mobility shi? assay (EMSA) to inves?gate the inﬂuence of screening hits on the DNMT2-tRNA complex forma?on. D NMT2 (10 µ M ) was mixe d w it h t RNAAsp (5 µM) and treated with 50 0 µM of the respec?ve screening hit compound in DNMT2 assay buﬀer. All reac?on samples (each 5 µL) were loaded to a na?ve 10% polyacr ylamide gel and separated electrophore?cally (1 h, 1 80 V) in 1x TBE. RNA was stained in situ with 1x GelRed and PAGE analysis was conducted by ﬂuorescence scanning at an excita?on wavelength of 532 nm (Amersham Typhoon 9400). Po s i ? ve control: DNMT2+tRNA (band at high molecular weights); nega?ve control: only tRNA (band at low
# DNMT2 [1] = target: T2, DNMT2 (Homo sapiens, UniProt O14717); assay: DNMT2 enzymatic split aptamer MST assay; type: biochemical
# T2 construct: made in house
# T2 sequence (O14717 1-391): T1 sequence (O14717 1-391)
# Experimental: The enzyme kinetics were characterized by calculating the Michaelis-Menten constant (KM or kcat) and inhibitory constants (IC50 resp. KI).
# The final drug compound concentration was adjusted to 500 µM for the epigenetic drug library (Fig. 5) resp. 100 µM for the covalent compound library (Fig. 6), and the enzymatic reaction was incubated for 30 min at 25 °C. Subsequently, enzymatic reactions were terminated by the addition of 0.3% SDS, and the product SAH was quantified by the split aptamer MST assay (Figs. 5A, B, 6A).
# DNMT2 [2] = target: T2, DNMT2; assay: DNMT2 fluorescence polarization (FP) FTAD displacement assay; type: binding
# Experimental: Fluorescence polarization assays were conducted with a similar sample composition as described for FTAD-MST assays as described previously. Triplicates (50 µL) were prepared in black 96-well half-area plates (Greiner) and measured using a Spark 10 M plate reader (Tecan) equipped with polarization filters coupled to a monochromator setup (FTAD: λex = 480 nm, λem = 530 nm). Polarization values (in mP) were calculated from polarization-specific parallel and orthogonal fluorescence intensities according to the Tecan in-built calculation routine.
# Reversibility of alexidine binding to DNMT2 was evaluated with a modified FP-assay setup. Briefly, reaction mixtures containing alexidine were prepared in black 96-well half-area plates, and after FP measurement, the volume of one well (50 µL) was collected and applied to a Zeba™ Spin Desalting Column (7 K MWCO) while 5 µL of a 10x DNMT2 buffer solution (500 mM HEPES, 1.5 M NaCl, 10 mM dithiothreitol (DTT), 1% PEG-8000, 0.5% polysorbate-20, pH 7.4) was placed in the collection tube attached to the SEC column. This procedure separated alexidine and restored the initial composition of the DNMT2 assay solution.
# Kinetic FP assays were performed to assess the time-dependent inactivation of DNMT2 treated with covalent inhibitors. Briefly, samples contained 2 µM DNMT2, 100 nM FTAD probe, and 1.3% DMSO in DNMT2 MST buffer. Inhibitors were added from DMSO stocks. Negative inhibition control was performed by mock treatment with DMSO. Reactions were initiated by the addition of the Cpd 11 (adamantanyl-acryloylurea) and monitored for 120 min at 25 °C in a Tecan Spark 10 M plate reader (FTAD: λex = 480 nm, λem = 530 nm) The irreversible inhibition kinetics were analyzed as described previously[35],[36].
# DNMT2 [3] = target: T2, DNMT2; assay: Fluorescent tracer displacement assay (FTAD-MST assay); type: binding
# From the text: (§1) To further validate our findings on DNMT2, we compared the split aptamer inhibition assay results of both inhibitors with those obtained from a previously published orthogonal assay method, the radiometric ^3H incorporation assay[8],[26]. […] Using an additional non-enzymatic MTase assay technique, we also investigated the two DNMT2 inhibitors utilizing an orthogonal MST method based on a fluorescent tracer displacement assay (SI Fig. 1)[27],[28].
# Fluorescent tracer displacement MST assays for orthogonal ligand evaluation were conducted as described previously. The samples contained 2 µM DNMT2, 100 nM FTAD probe, and 1.3% DMSO in MST buffer (50 mM HEPES, 150 mM NaCl, 1 mM dithiothreitol (DTT), 0.1% PEG-8000, 0.05% polysorbate-20, pH 7.4) supplemented with variable concentrations of the screening compounds. All samples were measured in triplicates in Monolith standard capillaries at 25 °C. The acquisition mode was set to “Nano-Blue” with an excitation power of 30% and a medium MST power. MST measurements were analyzed using the NT analysis software (version 1.5.41) and exported for statistical analysis and plotting in GraphPad Prism 7.01.
# DNMT2 [4] = target: T2, DNMT2; assay: DNMT2 radiometric 3H incorporation assay; type: biochemical
# Experimental: as §1
# Radiometric DNMT2 assays were carried out as described previously. HTRF MTase assays with the commercial AptaFluor SAH assay kit (BellBrook Labs) were performed as described in the manufacturer’s manual in 96-well format.
# [5] = tested on: aptaSAH1&2 SAH split aptamer; assay: Split aptamer (aptaSAH1&2) MST ligand titration; type: binding, D. aromatica
# Experimental: To establish our experimental setup, we mixed both aptamer fragment oligonucleotides at equimolar concentrations (final: 50 nM) and titrated series of SAH resp. SAM dilutions to this prototypical SAH biosensor. […] Furthermore, MST assays require only 10 µL of sample volume per capillary compared to 30 µL per well in a 96-well plate supporting high-throughput applications in material consumption.
# To evaluate the effect of inhibitors on DNMT2 activity, we used two known inhibitors, SHO108 and SH112. These SAH derivatives were selected based on their documented efficacy for DNMT2[8],[26].
# For MTase assay detection by MST, enzyme reaction mixtures with a total volume of 10 µL per single treatment condition were prepared and incubated for the desired reaction times. Inhibitors were added from corresponding DMSO stocks to a final DMSO concentration of max. 5%. Afterward, reactions were quenched at a given reaction time by the addition of 1 µL sodium dodecyl sulfate (SDS, solution, 3% in water) per 10 µL reaction mixture and mixed well by pipetting. Subsequently, 1 µL of a 10× aptamer-containing detection master mix (200 mM Tris, pH 8.5, 200 mM MgCl2, 3 M NaCl, 10 mM urea, 0.2% Brij, 500 nM aptaSAH1, 500 nM aptaSAH2) was added to the quenched MTase reaction and incubated for 1 h at room temperature. Reaction mixtures were loaded directly to MST capillaries without further purification or sample processing.
# MST experiments were carried out in at least technical triplicates using a Monolith NT.115 instrument (NanoTemper Technologies) using Monolith standard capillaries and the blue excitation laser setup. The instrument was calibrated according to the manufacturer’s instructions. General settings were applied for all MST experiments as follows: manual temperature control: 25 °C, fluorescence measurement before MST: 4 s, MST (IR laser) on: 20 s, fluorescence after MST: 2 s, delay: 25 s. The laser power was adjusted to optimize the signal-to-noise ratio and the fluorescence signal. LED and MST power settings were chosen individually for each sample by adjusting the LED power to yield fluorescence signals of at least 300 units (blue laser) or 3000 units (red laser) and the MST power to achieve an appropriate thermophoretic response (standard setting: medium MST power). MST measurements were analyzed using the NT analysis software (version 1.5.41) and exported for statistical analysis and plotting in GraphPad Prism 7.01.
structure (smiles),measurement,setting,value
c1cc(-c2cnn3cc(-c4ccc(OCCN5CCCCC5)cc4)cnc23)ccn1 [Cpd 1],influence on DNMT2-tRNA complex formation,DNMT2-tRNA complex,showed the potential to reverse the complex formation
COc1cc2nc(N3CCCN(C)CC3)nc(NC3CCN(Cc4ccccc4)CC3)c2cc1OC [Cpd 2],influence on DNMT2-tRNA complex formation,DNMT2-tRNA complex,showed the potential to reverse the complex formation
"CCCCC(CC)CNC(=N)NC(=N)NCCCCCCNC(=N)NC(=N)NCC(CC)CCCC (stereo not shown) [Cpd 3, alexidine]",influence on DNMT2-tRNA complex formation,DNMT2-tRNA complex,do not inﬂuence the complex; also recorded: did not influence DNMT2-tRNA complex formation
same,DNMT2 inhibition at concentrations <500 µM,DNMT2 [1]; enzymatic aptamer assay,showed inhibition
same,fluorescence polarization in the presence of compound,DNMT2 [2]; DNMT2-FTAD complex alone 96 mP,5 mP
same,Kd,"DNMT2 [2]; DNMT2 FP assay, FTAD tracer",364 µM
same,reversibility of binding,DNMT2 [2]; FP displacement with SEC separation,fully reversible binder
same,displacement of FTAD tracer / binding to SAH-binding site,DNMT2 [2]; FP library screening with FTAD tracer,binding to the SAH-binding site; also recorded: able to compete with the fluorescent SAH-analog
same,fluorescence polarization restored after size-exclusion chromatography,DNMT2 [2]; after SEC removal of compound,92 mP
same,fluorescence polarization after second treatment,DNMT2 [2]; second treatment after SEC,4 mP
CC(=O)c1cc([N+](=O)[O-])c(Sc2ccc(F)cc2F)s1 [Cpd 4],influence on DNMT2-tRNA complex formation,DNMT2-tRNA complex,do not inﬂuence the complex; also recorded: unable to disrupt the protein-tRNA complex
Cc1ncc(Cl)cc1NCc1ccc(C(=O)N[C@@H](CC2CCCC2)C(=O)NC2CC2)s1 [Cpd 5],influence on DNMT2-tRNA complex formation,DNMT2-tRNA complex,showed the potential to reverse the complex formation
COc1ccn2ncc(-c3nc4[nH]nc(NC(=O)c5ccc(F)cc5)c4cc3F)c2c1 [Cpd 6],influence on DNMT2-tRNA complex formation,DNMT2-tRNA complex,showed the potential to reverse the complex formation
Cc1cc(Nc2cc(Cl)nc(Oc3ccc([N+](=O)[O-])cc3)n2)n[nH]1 [Cpd 7],influence on DNMT2-tRNA complex formation,DNMT2-tRNA complex,do not inﬂuence the complex; also recorded: unable to disrupt the protein-tRNA complex
N[C@H](CNc1nc(-c2ccncc2)nc2sc3c(c12)CCCC3)Cc1ccccc1 [Cpd 8],influence on DNMT2-tRNA complex formation,DNMT2-tRNA complex,showed the potential to reverse the complex formation
CNC(=O)Nc1ccc2c(c1)CCC21OC(=O)N(CC(=O)N(Cc2ccc(F)cc2)C(C)C(F)(F)F)C1=O (stereo not shown) [Cpd 9],influence on DNMT2-tRNA complex formation,DNMT2-tRNA complex,showed the potential to reverse the complex formation
Cc1ccc(C(=O)COC(=O)c2cccc(NC(=O)c3ccc([N+](=O)[O-])cc3[N+](=O)[O-])c2)cc1 [Cpd 10],influence on DNMT2-tRNA complex formation,DNMT2-tRNA complex,do not inﬂuence the complex; also recorded: unable to disrupt the protein-tRNA complex
"Nc1ncnc2c1ncn2[C@@H]1O[C@H](CN(CC[C@H](N)C(=O)O)Cc2ccc(Cl)c(C(F)(F)F)c2)[C@@H](O)[C@H]1O [SH112, (S)-2-amino-4-((((2 R,3S,4 R,5 R)-5-(6-amino-9H-purin-9-yl)-3,4-dihydroxytetrahydrofuran-2-yl)methyl)(4-chloro-3-(trifluoromethyl)benzyl)amino)butanoic acid]",Kd,DNMT2 [3],7.8 µM
same,IC50,DNMT2 [4],15.6 ± 3.9 µM
same,binding to split aptamer (MST shift),"[5]; inhibitor titrated up to 100 µM without enzyme or RNA substrate, compared to the SAH-positive control",not binding to the aptamer at relevant concentrations; also recorded: only minimal MST shifts
same,IC50,"DNMT2 [1]; MST-derived, 250 nM DNMT2, 5 µM tRNA, 0.9 µM SAM",9.3 ± 1.7 µM
Nc1ncnc2c1ncn2[C@@H]1O[C@H](C[C@@H](N)CC[C@H](N)C(=O)O)[C@@H](O)[C@H]1O [sinefungin],binding to split aptamer (MST shift),"[5]; SAH analogs at 10 µM, aptaSAH1&2 both 50 nM",slight MST shift
